Drawing on patent publication US20070015817A1, “4-((4-(2-pyrrolidinylethoxy)phenyl)methyl)-3-(4-(trifluoromethyl)phenyl)-7-hydroxychromen-2one, pharmaceutically acceptable salts thereof and methods of use therewith” (priority 2002, published 2007), this text covers IC50 for six compounds.

Holding throughout (format): cell-based
Assay [1] concerns MCF-7 breast cancer cells. The experiment in a line: Inhibition of MCF-7 breast cancer cell proliferation. Conditions: Homo sapiens, MCF7; 0.1 nM 17β-estradiol-dependent growth, 72 h, 3H-thymidine incorporation. The protocol: MCF-7 cells represent an excellent in vitro system to study the effects of compounds on estrogen-dependent breast cancer growth. (May, F.E.B.; Westley, B. R. J. Biol. Chem. 262:15894-15899, 1987). Benzopyranone compounds having an IC50<100 nM are particularly useful as anti-breast cancer agents in vivo.
MCF-7 breast carcinoma cells were plated in 24-well dishes at a density of 5×10^3 cells/well in phenol-red free DMEM:F-12 (1:1) medium containing 1% antibiotics, 0.05% mercaptoethanol, 0.01% ethanolamine, 0.42 ng/mL sodium selenite and 5% charcoal-stripped FCS.
Illustrative benzopyranone compounds (0.1-1000 nM in 0.2% DMSO) and 0.1 nM 17β-estradiol were added to the cultured MCF-7 breast cancer cells for 72 h. Subsequently, 3H-labeled thymidine was added and its incorporation into cells was measured following 4h incubation. The results are expressed as IC50 (nM) values (Table 2) which is the concentration of the benzopyranone compound necessary to inhibit the growth of MCF-7 breast cancer cells by 50% relative to controls.

The test system of assay [2] is BG-1 ovarian carcinoma cells. As to the kind of experiment: Inhibition of BG-1 ovarian carcinoma cell proliferation. Conditions: 0.1 nM 17β-estradiol-dependent growth, 72 h, 3H-thymidine incorporation. The method, then: BG-1 cells serve as a useful in vitro model for the evaluation of the effects of antiestrogenic compounds on ovarian tumor growth (Greenberger, L. M. et. al., Clin. Cancer Res. 7:3166-3177, 2001). Benzopyranone compounds having an IC50<100 nM are particularly useful as anti-ovarian cancer agents in vivo.
BG-1 ovarian carcinoma cells were plated in 24-well dishes at a density of 5×10^3 cells/well in phenol-red free DMEM:F-12 (1:1) medium containing 1% antibiotics, 0.05% mercaptoethanol, 0.01% ethanolamine, 0.42 ng/mL sodium selenite and 5% charcoal-stripped FCS. Illustrative benzopyranone compounds (0.1-1000 nM in 0.2% DMSO) and 0.1 nM 17β-estradiol were added to the cultured BG-1 ovarian carcinoma cells and incubated for 72 h. Subsequently, ^3H-labeled thymidine was added and its incorporation into cells was measured following 4h incubation. The results are expressed as IC50 (nM) values (Table 2) which is the concentration of the benzopyranone compound necessary to inhibit the growth of BG-1 ovarian carcinoma cells by 50% relative to controls.
For orientation: Dividing cells build labelled thymidine or BrdU into new DNA.

Assay [3] has as its system IL-6 release from human U-2 OS osteosarcoma cells stably transfected with human ER-α. As to the kind of experiment: Inhibition of IL-6 release. As to conditions: U2OS; U-2 OS cells transfected with human ER-α, stimulated with 2.5 ng/ml TNFα and 1 ng/ml IL-1, IL-6 by ELISA after 24 h, relative to vehicle. The protocol: Illustrative benzopyranone compounds were tested for their ability to inhibit IL-6 release from human U-2 OS osteosarcoma cells stably transfected with human ER-α. (Stein, B.; Yang, M. X. Mol. Cell. Biol 15: 4971-4979, 1995; Poli, V. et. al., EMBO J. 13:1189-1196, 1994). […] Benzopyranone compounds having an IC50<100 nM are particularly useful as bone resorption inhibitors in vivo. Accordingly, the compounds of this assay, illustrative benzopyranone compounds, are particularly useful for the treatment of osteoporosis, Paget's disease and metastatic bone cancer. These compounds are also useful as anti-cancer agents as elevated IL-6 levels are responsible for certain cancers such as multiple myeloma, prostate cancer, ovarian cancer, renal carcinoma and cervical carcinoma.
Human U-2 OS osteosarcoma cells (ATCC) were stably transfected with expression vectors for human full-length ER-α using standard molecular biology techniques. Stable subclones were generated that expressed high levels of ER-α mRNA. The expression of ER-α was confirmed using RNase protection analysis.
Cells were plated into 96-well plates at a density of 80,000 cells per well in phenol red-free media with charcoal-stripped fetal calf serum. Twenty four hours later, cells were either treated with vehicle (0.2% DMSO) or test compound (0.01 B 100 nm in 0.2% DMSO). Thirty minutes later cells were stimulated with 2.5 ng/ml TNFα and 1 ng/ml IL-1. Twenty-four hours later the media supernatant was analyzed for cytokine production (IL-6) using commercially available ELISA kits following the manufacturer=s instructions. Cytokine production in the presence of vehicle (0.2% DMSO) was set to 100%. The results are expressed as IC50 (nM) values (Table 2) which is the concentration of the benzopyranone compound necessary to inhibit the production of IL-6 50% relative to the amount of IL-6 produced in the presence of vehicle.
Background: In an ELISA, binding on a coated surface is turned into a signal by an enzyme label.

In the case of `O=c1oc2cc(O)ccc2c(Cc2ccc(OCCN3CCCC3)cc2)c1-c1ccc(C(F)(F)F)cc1`, the values for the IC50 in assay [1], in assay [2] and in assay [3] were 13.6 nM, 13.6 nM and 1.5 nM, respectively.

Take `O=c1oc2cc(O)ccc2c(Cc2ccc(OCCN3CCCC3)cc2)c1-c1ccc(C(F)(F)F)cc1Cl`: the IC50 (in general, the concentration that gives 50% inhibition) in assay [1] was 4.5 nM; in assay [2], 4.65 nM; in assay [3], 0.5 nM.

Turning to `O=c1oc2cc(O)ccc2c(Cc2ccc(OCCN3CCCC3)cc2)c1-c1ccc(C(F)(F)F)cc1C(F)(F)F`, the IC50 in assay [1] turned out to be 26 nM; in assay [2], 5.5 nM; in assay [3], 1 nM.

Regarding `O=c1oc2cc(O)ccc2c(Cc2ccc(OCCN3CCCC3)cc2)c1-c1ccc(Cl)cc1C(F)(F)F`, the concentration for half-maximal inhibition (IC50) in assay [1] was found to be 3 nM; in assay [2], 2.3 nM; in assay [3], 0.4 nM.

In the case of `O=c1oc2cc(O)ccc2c(Cc2ccc(OCCN3CCCC3)cc2)c1-c1ccc(Cl)cc1`, the IC50 in assay [1] stood at 26 nM; in assay [2] it was 5.8 nM; in assay [3] it was 0.4 nM.

Consider `O=c1oc2cc(O)ccc2c(Cc2ccc(OCCN3CCCC3)cc2)c1-c1ccc(Cl)cc1Cl`, for which the IC50 came to 6.5 nM in assay [1], 1.4 nM in assay [2] and 0.29 nM in assay [3].
